For one compound, Activity results are on record in ChEMBL document CHEMBL3044865, “Herbicidal Activity and Characteristics of Pyraflufen-ethyl for Controlling Broad-leaved Weeds in Cereals” (J Pestic Sci, 2002).

In data set [1] the test system is Triticum aestivum. Description: Phytotoxicity in Triticum aestivum (wheat) assessed as injury at 0.3 g/ha post emergence application measured after 21 days after treatment. Type of data set: organism-based. The conditions noted are these: in vivo, other, 504 h.
Data set [2] has as its target T1, Protoporphyrinogen oxidase 2 (Spinacia oleracea) (UniProt Q94IG7).
T1 sequence (whole entry): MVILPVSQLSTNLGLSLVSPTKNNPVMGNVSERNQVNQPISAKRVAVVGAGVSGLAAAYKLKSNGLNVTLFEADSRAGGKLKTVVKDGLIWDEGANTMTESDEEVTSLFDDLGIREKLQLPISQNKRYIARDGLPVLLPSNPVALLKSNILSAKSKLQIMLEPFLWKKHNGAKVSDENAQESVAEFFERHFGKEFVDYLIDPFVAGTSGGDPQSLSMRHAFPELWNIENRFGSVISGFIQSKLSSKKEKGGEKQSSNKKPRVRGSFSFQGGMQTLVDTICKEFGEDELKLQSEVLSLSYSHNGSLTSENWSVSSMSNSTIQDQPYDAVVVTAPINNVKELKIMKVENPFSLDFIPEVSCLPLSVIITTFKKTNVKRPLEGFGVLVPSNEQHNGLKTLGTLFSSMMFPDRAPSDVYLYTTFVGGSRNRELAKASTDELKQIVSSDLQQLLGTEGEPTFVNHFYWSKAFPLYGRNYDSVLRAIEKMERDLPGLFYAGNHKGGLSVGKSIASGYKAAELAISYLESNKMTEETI
Description: Inhibition of Stellaria media protoporphyinogen oxidase assessed as herbicidal activity at 0.3 g/ha measured after 2 days after treatment under greenhouse by time-course analysis. The arrangement: scale not given: the % may be the effect or the level left.

The test system of data set [3] is Veronica hederifolia. Description: Herbicidal activity against Veronica hederaefolia assessed as killing at 10 g/ha pre emergence application measured after 21 days after treatment. It counts as functional.
Data set [4] has as its system Veronica hederifolia. Description: Herbicidal activity against Veronica hederaefolia assessed as killing at 1 g/ha post emergence application measured after 21 days after treatment. It counts as functional.
For data set [5], the system named is Viola arvensis. Description: Herbicidal activity against Viola arvensis assessed as killing at 300 g/ha post emergence application measured after 21 days after treatment. Type of data set: functional.
Data set [6] concerns Viola arvensis. Description: Herbicidal activity against Viola arvensis assessed as killing at 0.3 g/ha post emergence application measured after 21 days after treatment. Type of data set: functional.
In data set [7] the test system is Stellaria media. Description: Herbicidal activity against Stellaria media assessed as killing at 30 g/ha post emergence application measured after 21 days after treatment. Type of data set: functional.
In data set [8] the test system is Avena fatua. Description: Herbicidal activity against Avena fatua assessed as killing at 300 g/ha post emergence application measured after 21 days after treatment. Type of data set: functional.
In data set [9] the test system is Hordeum vulgare. Description: Phytotoxicity in Hordeum vulgare (barley) assessed as injury at 30 g/ha pre emergence application measured after 21 days after treatment. It counts as organism-based. The conditions noted are these: in vivo, other, 504 h.
The test system of data set [10] is Hordeum vulgare. Description: Phytotoxicity in Hordeum vulgare (barley) assessed as injury at 3 g/ha post emergence application measured after 21 days after treatment. The settings on record: in vivo, other, 504 h. Type of data set: organism-based.

Regarding `CCOC(=O)COc1cc(-c2nn(C)c(OC(F)F)c2Cl)c(F)cc1Cl` [PYRAFLUFEN-ETHYL], the Activity entry in data set [1] is “Non-toxic”; in data set [2], 90%; in data set [3], 1%; in data set [4], 90%; in [5], 50%; in data set [6] it was 21%. Also, the Activity in data set [7] is recorded as 40%; in data set [8], 21%; in data set [9] it was “Non-toxic”; in data set [10], 1%.
